The values below are quoted from earlier work in patent US20040102462A1, “2-(2-amino-1,6-dihydro-6-oxo-purin-9-yl) methoxy-1,3-propanediol derivative” (priority 1994, published 2004).

Molecules are shown by their SMILES.

The conditions of this series: rats; % of the acyclovir dosed.

Turning to `Nc1nc2c(ncn2COCCO)c(=O)[nH]1` [acyclovir, 2-(2-amino-1,6-dihydro-6-oxo-1,6-dihydro-purin-9-yl)methoxy-ethanol], the “acyclovir recovered in the urinary recovery assay” value was 19%.
